Experimental findings from ChEMBL document CHEMBL3044656, “Influence of soil fumigation on 2,4-D and dicamba carryover in fresh market tomato” (Crop Prot, 2006) are described below.

Molecules are shown by their SMILES.

Series [1] can be described thus: Half life of the compound.
The subject of series [2] is Solanum lycopersicum. As to the kind of experiment: Phytotoxicity in Solanum lycopersicum (tomato) plant assessed as plant vigour at 1.14 kg/ha after 134 days (reference value: 82%). In kind it is organism-based. The following applies: in vivo, 3216 h.
Series [3] has as its system Solanum lycopersicum. As to the kind of experiment: Phytotoxicity in Solanum lycopersicum (tomato) plant in fumigated soil assessed as plant vigour at 2.28 kg/ha after 134 days (reference value: 82%). In kind it is organism-based. Conditions: in vivo, other, 3216 h.
The subject of series [4] is Solanum lycopersicum. As to the kind of experiment: Phytotoxicity in Solanum lycopersicum (tomato) plant in non-fumigated soil assessed as decrease in total fruit yield at 1.14 to 2.28 kg/ha after 174 days relative to untreated control. It is filed as organism-based. Details: scale not given: the % may be the effect or the level left. Conditions: in vivo, other, 4176 h.

For `O=C(O)COc1ccc(Cl)cc1Cl` [2,4-DICHLOROPHENOXYACETIC ACID], the half-life in series [1] is 10 days. Also, the Activity in series [2] stood at 83%; in series [3], 80%; in series [4], 9%.

The molecule `COc1c(Cl)ccc(Cl)c1C(=O)O` [3,6 DICHLOROMETHOXYBENZOIC ACID] had a half-life in series [1] of 14 days.
